Results taken from paper PMC6609541, “Enterohepatic circulation of glucuronide metabolites of drugs in dog” (Pharmacology Research & Perspectives, 2019).
“And” between values parts separate entries of the source, which are not always exact repeats. Identical values can stand only once.

Legend:
Assay type in all cases: in vitro ADME
[1] = tested on: cryopreserved human hepatocytes; assay: Hepatocyte intrinsic clearance with and without ABT (human); details: for % of inhibition by ABT: human hepatocytes, inhibition of Clint by 1 mmol/L ABT (fm by P450); for Hepatic fm by UGT: human, in hepatocytes
Procedure: (§1) The intrinsic clearance was determined in cryopreserved dog and human hepatocytes essentially as described previously.4 The assay incubation contained 0.3 µmol/L compound and hepatocytes at a concentration of 10^6 cells/mL, with and without 30 minutes pre‐incubation of 1 mmol/L ABT. Intrinsic clearance measurement was initiated by the addition of compound and the incubation quenched at 0.6, 15, 30, 60 and 90 minutes for DPTQ, and at 0.6, 15, 30, 60, 120 and 240 minutes by addition of acetonitrile with 0.1% formic acid. Samples were centrifuged at 3500 g for 10 minutes and the supernatant was analyzed to quantify parent compound loss and the intrinsic clearance values (μL/min/10^6 cells) were calculated using following equation for incubations with and without ABT. CLint=-kdep×incubation volume/10^6cells
(§2) In which the depletion rate constant (k dep) is the slope determined using linear regression from the log transformed percentage remaining on the y‐axis vs time on the x‐axis (min^− ^1). The fraction of metabolism (fm) by P450 was determined by the measurement of the percentage of inhibition of Clint by ABT.

[2] = as above; details: cryopreserved human hepatocytes, human hepatocytes, 0.3 µmol/L compound
Procedure: as §1, §2

[3] = Hepatocyte intrinsic clearance with and without ABT (dog); details: cryopreserved dog hepatocytes, dog hepatocytes, 0.3 µmol/L compound
Procedure: as §1, §2

[4] = tested on: cryopreserved dog hepatocytes; assay: as above; details: for percentage of the metabolism not inhibited by ABT / % of inhibition by ABT: dog hepatocytes; for % of inhibition by ABT: inhibition of Clint by 1 mmol/L ABT (fm by P450); for Hepatic fm by UGT: dog, in hepatocytes
Procedure: as §1, §2

UGT = assay: Liver microsomal glucuronidation assay (human); details: human liver microsomes, pH 7.5, with 2% BSA
Procedure: (§3) Intrinsic clearance of the compounds by glucuronidation was conducted in human and dog liver and kidney microsomes. Microsomes (0.5 mg/mL) with or without 2% bovine serum albumin (BSA), 100 mmol/L Tris‐HCl buffer, (pH 7.5), containing 5 mmol/L MgCl2 and 50 µg of alamethicin were mixed and placed on ice for 15 minutes. Canagliflozin or DPTQ (2 µmol/L final concentration) were added, and the mixture was pre‐incubated at 37°C for 3 minutes. A 0‐minute time point was obtained and the reaction initiated by the addition of UDPGA (5 mmol/L final concentration). Aliquots of the incubation (50 µL) were removed at various time points 5, 15, 30, 60 and 120 minutes, and added to the quench solution (1:1 acetonitrile:water). The zero minute time points were also quenched in the same manner. Substrate concentrations were then measured by LC/MS and the intrinsic clearance values (μL/min/mg protein) were calculated using following equation. CLint=-kdep×incubation volume/mg protein
(§4) In which the depletion rate constant (k dep) is the slope determined using linear regression from the log transformed % remaining on the y‐axis vs time on the x‐axis (min^− ^1). […] To determine the unbound intrinsic clearances the microsomal Clint values were divided by the respective microsomal fraction unbound values. The microsomal unbound fraction both with and without 2% BSA was determined as described previously.15

UGT (glucuronidation) = assay: Liver microsomal glucuronidation assay (human); details: liver microsomes, pH 7.5, with 2% BSA, Clint divided by microsomal unbound fraction, read-out: Clint,u, Liver microsomes
Procedure: as §3, §4

[5] = tested on: cryopreserved human hepatocytes; assay: Hepatocyte metabolite profile with and without ABT (human); details: 4 h, 2 μmol/L
Procedure: Cryopreserved dog and human hepatocytes were obtained from BioreclamationIVT (Baltimore, MD). […] A stock solution of canagliflozin and DTPQ was added to medium to give a final incubation concentration of 2 μmol/L. The incubations including the media and cells were quenched after 4 hours with an equal volume of acetonitrile containing 200 ng/mL niflumic acid as internal standard. Samples were centrifuged at 3500 g for 10 minutes and the supernatant was analyzed by liquid chromatography coupled to a diode array UV detection and mass spectrometry system consisting of the Acquity ultra‐performance liquid chromatography column, Synapt G2‐S mass spectrometer, and an ultra‐performance liquid chromatography photodiode array detector (Waters, Milford, MA). The chromatographic separation of metabolites was achieved on a Waters 1.7‐μm Acquity BEH C18 (100 × 2.1 mm) column maintained at 60°C. The mobile phase consisted of solvent A (0.2% formic acid in water for DPTQ and 10 mmol/L ammonium acetate in water for canagliflozin) and solvent B (100% acetonitrile). The samples were eluted, at a flow rate of 0.5 mL/min with a gradient for 5 minutes. The LC/MS full scan data were processed by Metabolynx (Waters, Milford, MA) to identify metabolites. Product ion spectra were acquired to confirm the metabolites. The mass spectrometer was operated in positive ion mode with an electrospray ionization source. The parameters for the chamber were: capillary 1.0 kV, sample cone 50 V, source temperature 120°C, desolvation 500°C, and collision energy 25 V. The peak areas for parent, metabolite and internal standard were integrated to allow for comparison between conditions.

[6] = with 1 mmol/L ABT, 30 minutes pre-incubation, 1 mmol/L ABT pre‐incubation 30 minutes, read-out: Clint with ABT
[7] = 10^6 cells/mL, read-out: Clint without ABT

Compound: Cc1ccc([C@@H]2O[C@H](CO)[C@@H](O)[C@H](O)[C@H]2O)cc1Cc1ccc(-c2ccc(F)cc2)s1 [Canagliflozin]
- % of inhibition by ABT [1]: 20.1 ± 5.1%
- Hepatic fm by UGT [1]: High (high 70%‐100% in hepatocytes)
- hepatocyte CLint at 0.3 µmol/L [2, 6]: 10.1 ± 1.4 µL/min/1e6 cells
- hepatocyte CLint at 0.3 µmol/L [2, 7]: 12.7 ± 2 µL/min/1e6 cells
- hepatocyte CLint at 0.3 µmol/L [3, 6]: 6 ± 3.3 µL/min/1e6 cells
- hepatocyte CLint at 0.3 µmol/L [3, 7]: 6.5 ± 3.6 µL/min/1e6 cells
- percentage of the metabolism not inhibited by ABT [4]: 87.3%
- % of inhibition by ABT [4]: 12.7 ± 14.1%
- % of inhibition by ABT ([4]; listed as canagliflozin): 12.7%
- Hepatic fm by UGT [4]: Low (Low 0%‐30%)
- microsomal CLint at 2 µmol/L (UGT): 7.6 µL/min/mg
- microsomal CLint at 2 µmol/L (UGT (glucuronidation)): 422 µL/min/mg
- Peak area (+ABT) [5]: 2019
- Peak area (‐ABT) [5]: 3414

Compound: C[C@H]1c2cccc(CC(C)(C)O)c2C[C@H](CO)N1C(=O)Cc1c(Cl)cccc1Cl [DPTQ, 2‐(2,6‐dichlorophenyl)‐1‐((1S,3R)‐5‐(2‐hydroxy‐2‐methylpropyl)‐3‐(hydroxymethyl)‐1‐methyl‐3,4‐dihydroisoquinolin‐2(1H)‐yl)ethan‐1‐one]
- % of inhibition by ABT [1]: 7.8 ± 9.6%
- Hepatic fm by UGT [1]: High (high 70%‐100% in hepatocytes)
- hepatocyte CLint at 0.3 µmol/L [2, 6]: 5.5 ± 2.2 µL/min/1e6 cells
- hepatocyte CLint at 0.3 µmol/L [2, 7]: 5.8 ± 2 µL/min/1e6 cells
- hepatocyte CLint at 0.3 µmol/L [3, 6]: 18.3 ± 5.9 µL/min/1e6 cells
- hepatocyte CLint at 0.3 µmol/L [3, 7]: 38.6 ± 8.5 µL/min/1e6 cells
- percentage of the metabolism not inhibited by ABT [4]: 53.5%
- % of inhibition by ABT [4]: 46.5% and 46.5 ± 6.6%
- Hepatic fm by UGT [4]: Moderate (moderate 30%‐70%)
- microsomal CLint at 2 µmol/L (UGT): 5.6 µL/min/mg
- microsomal CLint at 2 µmol/L (UGT (glucuronidation)): 47.1 µL/min/mg
- Peak area (+ABT) [5]: 2364
- Peak area (‐ABT) [5]: 2810
